The values below come from patent publication US20170305857A1, “N-ACYLPIPERIDINE ETHER TROPOMYOSIN-RELATED KINASE INHIBITORS” (Pfizer Limited, priority 2014, published 2017).

As a reminder, the IC50 is the point on the concentration scale where inhibition reaches its midpoint.

T1 sequence (P04629 441-796): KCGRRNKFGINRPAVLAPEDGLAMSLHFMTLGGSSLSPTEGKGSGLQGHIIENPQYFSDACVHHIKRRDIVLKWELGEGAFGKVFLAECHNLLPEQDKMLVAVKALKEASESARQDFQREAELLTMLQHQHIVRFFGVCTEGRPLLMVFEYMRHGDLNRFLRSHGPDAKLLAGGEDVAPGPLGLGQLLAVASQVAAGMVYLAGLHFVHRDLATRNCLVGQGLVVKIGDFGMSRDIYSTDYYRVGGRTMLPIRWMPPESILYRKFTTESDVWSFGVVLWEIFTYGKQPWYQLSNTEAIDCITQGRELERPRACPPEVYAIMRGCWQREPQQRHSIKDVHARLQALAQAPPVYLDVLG

The test has as its target T1, recombinant His-tagged cytoplasmic domains of TRKA receptor (NTRK1, PV3144, aa 441-796) (Homo sapiens, UniProt P04629).
T1 construct: aa 441-796; His; purchased Invitrogen PV3144
Put plainly: Isolated TRK enzyme assay (HTRF KinEASE-TK, PV3144 TrkA enzyme assay). In kind it is biochemical. The conditions noted are these: 4 nM enzyme, 40 uM ATP, 35 min, arithmetic mean where more than one reading. The protocol: Isolated TRK Enzyme assays use the HTRF KinEASE-TK kit (Cisbio Cat #62TK0PEJ) with recombinant His-tagged cytoplasmic domains of TRKA receptor sourced from Invitrogen (see table below). This activity-assay measures the phosphorylation of tyrosine residues within a substrate from the HTRF kit which has been validated by Cisbio for a variety of tyrosine kinases including the TRK receptors.
0.5 mM stock solutions of test compounds are prepared and serially diluted in 100% DMSO. […] Greiner low volume black plates containing 0.2 ul of serially diluted compound, standard and HPE/ZPE are created using the Bravo nanolitre dispenser.
1× enzyme buffer is prepared from 5× Enzymatic Buffer from the Cisbio KinEASE TK kit using MilliQ water. The buffer is then supplemented with 10 mM MgCl and 2 mM DTT (both from Sigma).
Following this preactivation step, 5 ul/well of enzyme+ATP mix is added using a Multidrop Micro to the assay plate, spotted with 0.2 ul 100% DMSO compound. This is left for 20 mins at room temperature before adding 5 ul of 2 uM TK-substrate-Biotin (from the Cisbio kit) diluted in 1× enzyme buffer (1 uM FAC) using the Multidrop Micro. The reaction is incubated at room temperature for the optimized assay reaction time (see table).
After the Detection Reagent addition, plates are covered and incubated at room temperature for 60 minutes. […] Test compound data are expressed as percentage inhibition defined by HPE and ZPE values for each plate. Percentage inhibition in the presence of test compound is plotted against compound concentration on a log scale to determine an IC50 from the resultant sigmoid curve.
Where more than one reading was taken, the arithmetic mean is presented.
As for `NC(=O)c1cc(-n2cc(CO)cn2)cnc1O[C@@H]1CCN(C(=O)Cc2ccc(OC(F)(F)F)cc2)C[C@@H]1F` [Example 160, 2-{[(3S,4R)-3-fluoro-1-{[4-(trifluoromethoxy)phenyl]acetyl}piperidin-4-yl]oxy}-5-[4-(hydroxymethyl)-1H-pyrazol-1-yl]pyridine-3-carboxamide], the 50% inhibitory concentration (IC50) came out at 8.46 nM. With `CC(C)(O)Cn1cc(-c2ccc(OC3CCN(C(=O)Cc4ccc(OC(F)(F)F)cc4)CC3)c(C(N)=O)c2)cn1` [Example 135] the figure was 3.9 nM. In the case of `C[C@H](CO)n1cc(-c2ccc(OC3CCN(C(=O)Cc4ccc(OC(F)(F)F)cc4)CC3)c(C(N)=O)c2)cn1` [Example 132] it was 5.1 nM; in that of `NC(=O)c1cc(-c2cn[nH]c2)ccc1O[C@@H]1CCN(C(=O)Cc2ccc(OC3CC3)cn2)C[C@@H]1F` [Example 83, 2-{[(3S,4R)-1-{[5-(cyclopropyloxy)pyridin-2-yl]acetyl}-3-fluoropiperidin-4-yl]oxy}-5-(1H-pyrazol-4-yl)benzamide], 1.4 nM; in that of `NC(=O)c1cc(-c2cn[nH]c2)ccc1O[C@@H]1CCN(C(=O)Cc2ccc(OC(F)(F)F)cc2)C[C@@H]1F` [Example 73, 2-{[(3S,4R)-3-fluoro-1-{[4-(trifluoromethoxy)phenyl]acetyl}piperidin-4-yl]oxy}-5-(1H-pyrazol-4-yl)benzamide], 0.9 nM. In the case of `Cn1cnc(-c2ccc(OC3CCN(C(=O)Cc4ccc(OC5CC5)cc4)CC3)c(C(N)=O)c2)c1` [Example 17, 2-[(1-{[4-(cyclopropyloxy)phenyl]acetyl}piperidin-4-yl)oxy]-5-(1-methyl-1H-imidazol-4-yl)benzamide] it was 10.4 nM; in that of `Cn1cc(-c2ccc(OC3CCN(C(=O)Cc4ccc(OC5CC5)cn4)CC3)c(C(N)=O)c2)cn1` [Example 173, 2-[(1-{[5-(cyclopropyloxy)pyridin-2-yl]acetyl}piperidin-4-yl)oxy]-5-(1-methyl-1H-pyrazol-4-yl)benzamide], 11.4 nM; in that of `NC(=O)c1cc(-c2cnn(C3CS(=O)(=O)C3)c2)ccc1OC1CCN(C(=O)Cc2ccc(OC(F)(F)F)cc2)CC1` [Example 13, 5-[1-(1,1-dioxidothietan-3-yl)-1H-pyrazol-4-yl]-2-[(1-{[4-(trifluoromethoxy)phenyl]acetyl}piperidin-4-yl)oxy]benzamide], 2.2 nM.

On to `NC(=O)c1cc(-c2c[nH]c(C3(O)COC3)n2)ccc1OC1CCN(C(=O)Cc2ccc(OC(F)(F)F)cc2)CC1` [Example 56, 5-[2-(3-hydroxyoxetan-3-yl)-1H-imidazol-5-yl]-2-[(1-{[4-(trifluoromethoxy)phenyl]acetyl}piperidin-4-yl)oxy]benzamide], for which the IC50 amounted to 5.1 nM. As for `CS(=O)(=O)Cn1cc(-c2cc(C(N)=O)c(O[C@H]3CCN(C(=O)Cc4ccc(OC(F)(F)F)cc4)C[C@@H]3F)cn2)cn1` [Example 166, 5-{[(3S,4S)-3-fluoro-1-{[4-(trifluoromethoxy)phenyl]acetyl}piperidin-4-yl]oxy}-2-{1-[(methylsulfonyl)methyl]-1H-pyrazol-4-yl}pyridine-4-carboxamide], the IC50 turned out to be 12.8 nM. With `NC(=O)c1cc(-c2cn[nH]c2)cnc1O[C@@H]1CCN(C(=O)Cc2ccc(OC3CC3)cn2)C[C@@H]1F` [Example 78, 2-{[(3S,4R)-1-{[5-(cyclopropyloxy)pyridin-2-yl]acetyl}-3-fluoropiperidin-4-yl]oxy}-5-(1H-pyrazol-4-yl)pyridine-3-carboxamide] the figure was 2.6 nM. `CC1CN(C(=O)Cc2ccc(OC(F)(F)F)cc2)CCC1Oc1ccc(-c2cn(C)cn2)cc1C(N)=O` (racemic) [Example 50, Racemic 2-((3-methyl-1-(2-(4-(trifluoromethoxy)phenyl)acetyl)piperidin-4-yl)oxy)-5-(1-methyl-1H-imidazol-4-yl)benzamide]: the 50% inhibitory concentration (IC50) was found to be 3.6 nM. For `NC(=O)c1cc(-c2cn[nH]c2)ccc1O[C@H]1CCN(C(=O)Cc2ccc(OC3CC3)cn2)C[C@@H]1F` [Example 84, 2-{[(3S,4S)-1-{[5-(cyclopropyloxy)pyridin-2-yl]acetyl}-3-fluoropiperidin-4-yl]oxy}-5-(1H-pyrazol-4-yl)benzamide], the IC50 was 4.4 nM.

Take `Cn1cnc(-c2ccc(O[C@@H]3CCN(C(=O)Cc4ccc(OC5CC5)cc4)C[C@H]3F)c(C(N)=O)c2)c1` (racemic) [Example 44]: the concentration for half-maximal inhibition (IC50) was found to be 3.8 nM. In the case of `CC(C)(O)Cn1cc(-c2cnc(O[C@@H]3CCN(C(=O)Cc4ccc(OC5CC5)cn4)C[C@@H]3F)c(C(N)=O)c2)cn1` [Example 32, 2-{[(3S,4R)-1-{[5-(cyclopropyloxy)pyridin-2-yl]acetyl}-3-fluoropiperidin-4-yl]oxy}-5-[1-(2-hydroxy-2-methylpropyl)-1H-pyrazol-4-yl]pyridine-3-carboxamide], the IC50 worked out at 7.2 nM. With `NC(=O)c1cc(-c2ccn(CCO)n2)ccc1OC1CCN(C(=O)Cc2ccc(OC(F)(F)F)cc2)CC1` [Example 90, 5-[1-(2-hydroxyethyl)-1H-pyrazol-3-yl]-2-[(1-{[4-{trifluoromethoxy)phenyl]acetyl}piperidin-4-yl)oxy]benzamide], the half-maximal inhibitory concentration (IC50) was determined as 4.2 nM. On to `Cc1n[nH]c(C)c1-c1ccc(OC2CCN(C(=O)Cc3ccc(OC(F)(F)F)cc3)CC2)c(C(N)=O)c1` [Example 102, 5-(3,5-dimethyl-1H-pyrazol-4-yl)-2-[(1-{[4-(trifluoromethoxy)phenyl]acetyl}piperidin-4-yl)oxy]benzamide], for which the IC50 amounted to 10.1 nM. In the case of `NC(=O)c1cc(-c2cnn(C3COC3)c2)ccc1OC1CCN(C(=O)Cc2ccc(OC(F)(F)F)cc2)CC1` [Example 57, 5-[1-(oxetan-3-yl)-1H-pyrazol-4-yl]-2-[(1-{[4-(trifluoromethoxy)phenyl]acetyl}piperidin-4-yl)oxy]benzamide] it was 2.6 nM. In the case of `NC(=O)c1cc(-c2cn[nH]c2)ncc1O[C@@H]1CCN(C(=O)Cc2ccc(OC(F)(F)F)cc2)C[C@@H]1F` [Example 85, 5-{[(3S,4R)-3-fluoro-1-{[4-(trifluoromethoxy)phenyl]acetyl}piperidin-4-yl]oxy}-2-(1H-pyrazol-4-yl)pyridine-4-carboxamide] it was 1.7 nM; in that of `CS(=O)(=O)Cn1cc(-c2cnc(O[C@H]3CCN(C(=O)Cc4ccc(OC(F)(F)F)cc4)C[C@@H]3F)c(C(N)=O)c2)cn1` [Example 25, 2-{[(3S,4S)-3-fluoro-1-{[4-(trifluoromethoxy)phenyl]acetyl}piperidin-4-yl]oxy}-5-{1-[(methylsulfonyl)methyl]-1H-pyrazol-4-yl}pyridine-3-carboxamide], 3.7 nM; in that of `Cn1cc(-c2ccc(OC3CCN(C(=O)Cc4ccc(C(C)(C)C)cc4)CC3)c(C(N)=O)c2)cn1` [Example 107, 2-({1-[(4-tert-butylphenyl)acetyl]piperidin-4-yl}oxy)-5-(1-methyl-1H-pyrazol-4-yl)benzamide], 9.8 nM. In the case of `Cn1cc(-c2ccc(OC3CCN(C(=O)Nc4ccc(OC5CC5)cc4)CC3)c(C(N)=O)c2)cn1` [Example 181, 4-[2-carbamoyl-4-(1-methyl-1H-pyrazol-4-yl)phenoxy]-N-[4-(cyclopropyloxy)phenyl]piperidine-1-carboxamide], the IC50 turned out to be 19.3 nM.

Regarding `C[C@@H](O)Cn1cc(-c2ccc(OC3CCN(C(=O)Cc4ccc(OC(F)(F)F)cc4)CC3)c(C(N)=O)c2)cn1` [Example 133], the IC50 came to 2.6 nM. In the case of `NC(=O)c1cc(-c2cn[nH]c2)cnc1O[C@H]1CCN(C(=O)Cc2ccc(OC(F)(F)F)cc2)C[C@H]1F` [Example 72, 2-{[(3R,4S)-3-fluoro-1-{[4-(trifluoromethoxy)phenyl]acetyl}piperidin-4-yl]oxy}-5-(1H-pyrazol-4-yl)pyridine-3-carboxamide] it was 1.3 nM; in that of `CC(N)c1ccc(-c2cnc(OC3CCN(C(=O)Cc4ccc(OC(F)(F)F)cc4)CC3)c(C(N)=O)c2)cc1` (racemic) [Example 94, Racemic 5-[4-(1-aminoethyl)phenyl]-2-[(1-{[4-(trifluoromethoxy)phenyl]acetyl}piperidin-4-yl)oxy]pyridine-3-carboxamide], 8.8 nM.

Consider `Cn1cnc(-c2cnc(O[C@@H]3CCN(C(=O)Cc4ccc(OC5CC5)cc4)C[C@@H]3F)c(C(N)=O)c2)c1` [Example 7, 2-{[(3S,4R)-1-{[4-(cyclopropyloxy)phenyl]acetyl}-3-fluoropiperidin-4-yl]oxy}-5-(1-methyl-1H-imidazol-4-yl)pyridine-3-carboxamide], for which the half-inhibitory concentration (IC50) was 1.4 nM.

For `Cn1cc(-c2cnc(OC3CCN(C(=O)Cc4ccc(OC(F)(F)F)cc4)CC3)c(C(N)=O)c2)cn1` [Example 182, 5-(1-methyl-1H-pyrazol-4-yl)-2-[(1-{[4-(trifluoromethoxy)phenyl]acetyl}piperidin-4-yl)oxy]pyridine-3-carboxamide], the concentration for half-maximal inhibition (IC50) came to 15.1 nM. With `C[C@@H](CO)n1cc(-c2ccc(OC3CCN(C(=O)Cc4ccc(OC(F)(F)F)cc4)CC3)c(C(N)=O)c2)cn1` [Example 131, 5-{1-[(2S)-1-hydroxypropan-2-yl]-1H-pyrazol-4-yl}-2-[(1-{[4-(trifluoromethoxy)phenyl]acetyl}piperidin-4-yl)oxy]benzamide] the figure was 4.4 nM.
